How the values were obtained:
Type in all cases: in vivo
Euschistus heros = assay: Example B2: Euschistus heros (Neotropical Brown Stink Bug); conditions: 120 h, application rate of 200 ppm, sprayed soybean leaves, N2 nymphs, 5 days after infestation, read-out: control in at least one of the two categories (mortality or growth inhibition)
Procedure: Example B2: Euschistus heros (Neotropical Brown Stink Bug)
Soybean leaves on agar in 24-well microtiter plates were sprayed with aqueous test solutions prepared from 10′000 ppm DMSO stock solutions. After drying the leaves were infested with N2 nymphs. The samples were assessed for mortality and growth inhibition in comparison to untreated samples 5 days after infestation.

Chilo suppressalis = assay: Example B4: Chilo suppressalis (Striped Rice Stemborer); conditions: 144 h, application rate of 200 ppm, artificial diet, L2 larvae, 6 days after infestation, read-out: control in at least one of the three categories (mortality, anti-feedant or growth inhibition)
Procedure: Example B4: Chilo suppressalis (Striped Rice Stemborer)
24-well microtiter plates with artificial diet were treated with aqueous test solutions prepared from 10′000 ppm DMSO stock solutions by pipetting. After drying, the plates were infested with L2 larvae (6-8 per well). The samples were assessed for mortality, anti-feeding effect, and growth inhibition in comparison to untreated samples 6 days after infestation. Control of Chilo suppressalis by a test sample is given when at least one of the categories mortality, anti-feedant effect, and growth inhibition is higher than the untreated sample.

Plutella xylostella [1] = assay: Example B5: Plutella xylostella (Diamond Back Moth); conditions: 192 h, application rate of 200 ppm, 24-well artificial diet, eggs, 8 days after infestation, read-out: control in at least one of the two categories (mortality or growth inhibition)
Procedure: Example B5: Plutella xylostella (Diamond Back Moth)
24-well microtiter plates with artificial diet were treated with aqueous test solutions prepared from 10′000 ppm DMSO stock solutions by pipetting. After drying, Plutella eggs were pipetted through a plastic stencil onto a gel blotting paper and the plate was closed with it. The samples were assessed for mortality and growth inhibition in comparison to untreated samples 8 days after infestation.

Diabrotica balteata = assay: Example B1: Diabrotica balteata (Corn Root Worm); conditions: 96 h, application rate of 200 ppm, sprayed maize sprouts, L2 larvae, 4 days after infestation, read-out: control in at least one of the two categories (mortality or growth inhibition)
Procedure: Example B1: Diabrotica balteata (Corn Root Worm)
Maize sprouts placed onto an agar layer in 24-well microtiter plates were treated with aqueous test solutions prepared from 10′000 ppm DMSO stock solutions by spraying. After drying, the plates were infested with L2 larvae (6 to 10 per well). The samples were assessed for mortality and growth inhibition in comparison to untreated samples 4 days after infestation.

Plutella xylostella [2] = assay: Example B12: Plutella xylostella (Diamondback Moth), 96-well artificial diet; conditions: 216 h, application rate of 500 ppm, eggs, 9 days after infestation
Procedure: Example B12: Plutella xylostella (Diamondback Moth)
96-well microtiter plates containing artificial diet were treated with aqueous test solutions, prepared from 10′000 ppm DMSO stock solutions, by a liquid handling robot. After drying, eggs (˜30 per well) were infested onto a netted lid which was suspended above the diet. The eggs hatch and L1 larvae move down to the diet. The samples were assessed for mortality 9 days after infestation.

Myzus persicae = assay: Example B8: Myzus persicae (Green Peach Aphid): Intrinsic Activity; conditions: 120 h, test rate of 12 ppm, 24-well sucrose solution under Parafilm, 5 days after infestation
Excerpt: Example B8: Myzus persicae (Green Peach Aphid): Intrinsic Activity
Test compounds prepared from 10′000 ppm DMSO stock solutions were applied by pipette into 24-well microtiter plates and mixed with sucrose solution. The plates were closed with a stretched Parafilm. A plastic stencil with 24 holes was placed onto the plate and infested pea seedlings were placed directly on the Parafilm. The infested plate was closed with a gel blotting paper and another plastic stencil and then turned upside down. The samples were assessed for mortality 5 days after infestation.

Spodoptera littoralis = assay: Example B9: Spodoptera littoralis (Egyptian Cotton Leaf Worm), cotton leaf disc spray; conditions: foliar, 72 h, application rate of 200 ppm, sprayed cotton leaf discs, L1 larvae, 3 days after infestation, read-out: control in at least one of the three categories (mortality, anti-feedant or growth inhibition)

CC(NC(=O)c1cc(Cl)nc(C(F)(F)F)c1)c1nccnc1-c1ncccn1 (stereo not shown) [P1, 2-chloro-N-[1-(3-pyrimidin-2-ylpyrazin-2-yl)ethyl]-6-(trifluoromethyl)pyridine-4-carboxamide]
≥ 80%: percent control (mortality or growth inhibition) at 200 ppm (Euschistus heros) | percent control (mortality, anti-feedant effect or growth inhibition) at 200 ppm (Chilo suppressalis) | percent control (mortality or growth inhibition) at 200 ppm (Plutella xylostella [1]) | percent control (mortality or growth inhibition) at 200 ppm (Diabrotica balteata)

CC(NC(=O)c1cc(C(F)(F)F)cc(C(F)(F)C2CC2)c1)c1nccnc1-c1ccc(Br)cn1 (stereo not shown) [P21, N-[1-[3-(5-bromo-2-pyridyl)pyrazin-2-yl]ethyl]-3-[cyclopropyl(difluoro)methyl]-5-(trifluoromethyl) benzamide]
≥ 80%: percent control (mortality or growth inhibition) at 200 ppm (Euschistus heros) | mortality at 500 ppm (Plutella xylostella [2]) | percent control (mortality or growth inhibition) at 200 ppm (Plutella xylostella [1])

CC(NC(=O)c1cc(C(F)(F)F)cc(C(F)(F)C2CC2)c1)c1nccnc1-c1ncccn1 (stereo not shown) [P30, 3-[cyclopropyl(difluoro)methyl]-N-[1-(3-pyrimidin-2-ylpyrazin-2-yl)ethyl]-5-(trifluoromethyl)benzamide]
≥ 80%: mortality at 12 ppm (Myzus persicae) | percent control (mortality or growth inhibition) at 200 ppm (Euschistus heros) | percent control (mortality, anti-feedant effect or growth inhibition) at 200 ppm (Chilo suppressalis) | percent control (mortality, anti-feedant effect or growth inhibition) at 200 ppm (Spodoptera littoralis) | percent control (mortality or growth inhibition) at 200 ppm (Plutella xylostella [1]) | percent control (mortality or growth inhibition) at 200 ppm (Diabrotica balteata)

CC(NC(=O)c1cc(C2CC2C(F)(F)F)cc(C(F)(F)F)c1)c1nccnc1-c1ncccn1 (stereo not shown) [P37, N-[1-(3-pyrimidin-2-ylpyrazin-2-yl)ethyl]-3-(trifluoromethyl)-5-[2-(trifluoromethyl)cyclopropyl] benzamide]
≥ 80%: mortality at 12 ppm (Myzus persicae) | percent control (mortality, anti-feedant effect or growth inhibition) at 200 ppm (Chilo suppressalis) | mortality at 500 ppm (Plutella xylostella [2]) | percent control (mortality, anti-feedant effect or growth inhibition) at 200 ppm (Spodoptera littoralis) | percent control (mortality or growth inhibition) at 200 ppm (Plutella xylostella [1]) | percent control (mortality or growth inhibition) at 200 ppm (Diabrotica balteata)

CC(NC(=O)c1cc(C2CC2)cc(C(F)(F)F)c1)c1nccnc1-c1ncccn1 (stereo not shown) [P41, 3-cyclopropyl-N-[1-(3-pyrimidin-2-ylpyrazin-2-yl)ethyl]-5-(trifluoromethyl)benzamide]
≥ 80%: mortality at 12 ppm (Myzus persicae) | percent control (mortality, anti-feedant effect or growth inhibition) at 200 ppm (Chilo suppressalis) | percent control (mortality, anti-feedant effect or growth inhibition) at 200 ppm (Spodoptera littoralis) | percent control (mortality or growth inhibition) at 200 ppm (Plutella xylostella [1]) | percent control (mortality or growth inhibition) at 200 ppm (Diabrotica balteata)

Cc1cnc(-c2nccnc2C(C)NC(=O)c2cc(C(F)(F)F)cc(C(C)(C)C#N)c2)nc1 (stereo not shown) [P48, 3-(1-cyano-1-methyl-ethyl)-N-[1-[3-(5-methylpyrimidin-2-yl)pyrazin-2-yl]ethyl]-5-(trifluoromethyl)benzamide]
≥ 80%: percent control (mortality or growth inhibition) at 200 ppm (Euschistus heros) | percent control (mortality, anti-feedant effect or growth inhibition) at 200 ppm (Chilo suppressalis) | percent control (mortality, anti-feedant effect or growth inhibition) at 200 ppm (Spodoptera littoralis) | percent control (mortality or growth inhibition) at 200 ppm (Plutella xylostella [1])

CC(NC(=O)c1cc(C(F)(F)F)nc(C2(C#N)CC2)c1)c1nccnc1-c1ncc(Br)cn1 (stereo not shown) [P55, N-[1-[3-(5-bromopyrimidin-2-yl)pyrazin-2-yl]ethyl]-2-(1-cyanocyclopropyl)-6-(trifluoromethyl)pyridine-4-carboxamide]
≥ 80%: mortality at 12 ppm (Myzus persicae) | percent control (mortality or growth inhibition) at 200 ppm (Euschistus heros) | percent control (mortality, anti-feedant effect or growth inhibition) at 200 ppm (Chilo suppressalis) | percent control (mortality, anti-feedant effect or growth inhibition) at 200 ppm (Spodoptera littoralis) | percent control (mortality or growth inhibition) at 200 ppm (Plutella xylostella [1]) | percent control (mortality or growth inhibition) at 200 ppm (Diabrotica balteata)
